Values of other authors as cited in patent US11708332B2, “Human plasma kallikrein inhibitors” (BioCryst Pharmaceuticals, Inc., priority 2014, dated 2023).

How the values were obtained:
[1] = system: hereditary angioedema (HAE)
[2] = system: lipopolysaccharide (LPS)- or bacterial-induced sepsis; settings: LPS- or bacterial-induced sepsis in animals
[3] = system: middle cerebral artery occlusion (MCAO); settings: mouse model of MCAO

NC(N)=NCCC[C@@H](N)C(=O)N[C@@H](CCCN=C(N)N)C(=O)N1CCC[C@H]1C(=O)N1C[C@H](O)C[C@H]1C(=O)NCC(=O)N[C@@H](Cc1cccs1)C(=O)N[C@@H](CO)C(=O)N1Cc2ccccc2C[C@@H]1C(=O)N1[C@H](C(=O)N[C@@H](CCCN=C(N)N)C(=O)O)C[C@@H]2CCCC[C@@H]21 [Icatibant]
effectiveness in treating HAE ([1]; HAE): effective

H-D-Pro-Phe-Arg-chloromethylketone
lesions [2]: reduce

ecallantide [DX-88]
edema in patients with hereditary angioedema (HAE) ([1]; patients with HAE): alleviates edema

B1: Cl-inhibitor: "Cl-inhibitor reduced infarct size in a mouse model of middle cerebral artery occlusion (MCAO)" (protein, UniProt P05155 23-500, looked up)
Plasma protease C1 inhibitor: NPNATSSSSQDPESLQDRGEGKVATTVISKMLFVEPILEVSSLPTTNSTTNSATKITANTTDEPTTQPTTEPTTQPTIQPTQPTTQLPTDSPTQPTTGSFCPGPVTLCSDLESHSTEAVLGDALVDFSLKLYHAFSAMKKVETNMAFSPFSIASLLTQVLLGAGENTKTNLESILSYPKDFTCVHQALKGFTTKGVTSVSQIFHSPDLAIRDTFVNASRTLYSSSPRVLSNNSDANLELINTWVAKNTNNKISRLLDSLPSDTRLVLLNAIYLSAKWKTTFDPKKTRMEPFHFKNSVIKVPMMNSKKYPVAHFIDQTLKAKVGQLQLSHNLSLVILVPQNLKHRLEDMEQALSPSVFKAIMEKLEMSKFQPTLLTLPRIKVTTSQDMLSIMEKLEFFDFSYDLNLCGLTEDPDLQVSAMQHQTVLELTETGVEAAAASAISVARTLLVFEVQQPFLFVLWDQQHKFPVFMGRVYDPRA
infarct size [3]: reduced

B2: C1-inhibitor: "a physiological inhibitor (C1-inhibitor)" (protein, UniProt P05155 23-500, looked up)
Plasma protease C1 inhibitor: NPNATSSSSQDPESLQDRGEGKVATTVISKMLFVEPILEVSSLPTTNSTTNSATKITANTTDEPTTQPTTEPTTQPTIQPTQPTTQLPTDSPTQPTTGSFCPGPVTLCSDLESHSTEAVLGDALVDFSLKLYHAFSAMKKVETNMAFSPFSIASLLTQVLLGAGENTKTNLESILSYPKDFTCVHQALKGFTTKGVTSVSQIFHSPDLAIRDTFVNASRTLYSSSPRVLSNNSDANLELINTWVAKNTNNKISRLLDSLPSDTRLVLLNAIYLSAKWKTTFDPKKTRMEPFHFKNSVIKVPMMNSKKYPVAHFIDQTLKAKVGQLQLSHNLSLVILVPQNLKHRLEDMEQALSPSVFKAIMEKLEMSKFQPTLLTLPRIKVTTSQDMLSIMEKLEFFDFSYDLNLCGLTEDPDLQVSAMQHQTVLELTETGVEAAAASAISVARTLLVFEVQQPFLFVLWDQQHKFPVFMGRVYDPRA
lesions [2]: reduce
